In paper PMC12268802, “The herbicidal natural product phosphonothrixin is an inhibitor of the riboflavin biosynthetic enzyme L‐3,4‐dihydroxy‐2‐butanone‐4‐phosphate synthase” (Pest Management Science, 2025):

How the values were obtained:
[1] = test system: imidazoleglycerol phosphate dehydratase; parameters: method as in PMID 12228396; conditions: cited from earlier work
[2] = cited from earlier work
[3] = test system: EPSP synthase; parameters: method as in PMID 1939260; conditions: from several higher plants; cited from earlier work
[4] = test system: Lemna gibba; assay: Lemna gibba growth assay; type: in vivo; conditions: 7 days
Procedure: Growth experiments were performed in sterile 6‐well cell culture plates and were initiated by transferring four Lemna gibba fronds per well to 5 mL of K‐medium[22] pH 4.8 containing 1% (w/v) sucrose and a selected concentration of phosphonothrixin (1) and riboflavin determined from previous experiments. The cell culture plates were incubated for 7 days in a growth cabinet at 22 °C and a continuous photon flux density of 75 μE/m^2s.

[5] = biological target: dihydroxy‐acid dehydratase; parameters: method as in PMID 29995859; conditions: Arabidopsis enzyme; cited from earlier work
[6] = substrate: O=C(CO)[C@H](O)[C@H](O)COP(=O)(O)O; assay: DHBPS activity assay; type: biochemical, Arabidopsis thaliana; conditions: other: substrate varied 0 to 2 mM; pH 6.5
Procedure: DHBPS activity assays were out carried in 96‐well microtiter plates using a modification of the procedure previously described.[18] The reaction mixture contained 100 mM MES (2‐morpholinoethanesulfonic acid) buffer pH 6.5, 20 mM MgCl2, 20 mM D‐ribose‐5‐phosphate (Sigma‐Aldrich R7750), 0.02% Tween‐20, 0.2 mg BSA, 0.5 μg of spinach phosphoriboisomerase (Sigma‐Aldrich P9752) and DHBPS enzyme in a final volume of 110 μL. Assays were initiated by adding enzyme and terminated after 120 min incubation at rt by the addition of 90 μL of a solution of 3.5% α‐naphthol and 0.2% creatine in 2 N NaOH. After an additional 45 min incubation at rt the absorbance was determined at 540 nm. The pI50‐value for inhibition by phosphonothrixin (1) was determined with the XLFit Excel add‐in version 4.3.1 curve fitting program of ID Business Solutions Limited. […] Reaction velocities were fitted to the Michaelis–Menten equation with the XLFit curve fitting program.

[7] = 50 μM riboflavin in the presence of 100 μM phosphonothrixin

## O=P(O)(O)[C@H]1CCC[C@@](O)(c2nc[nH]n2)C1 (relative stereo) [IRL1803, trans‐(3‐hydroxy‐3‐(1H‐1,2,4‐triazol‐3‐yl)cyclohexyl)‐phosphonic acid]
[1]
  potency against imidazoleglycerol phosphate dehydratase: nanomolar inhibitor
[2]
  application rate required for a significant herbicidal effect: ~1 kg ha^−1

## O=C(O)CNCP(=O)(O)O [glyphosate]
[3]
  IC50-values, EPSP synthase: single and double‐digit micromolar range

## Cc1cc2nc3c(=O)[nH]c(=O)nc-3n(C[C@H](O)[C@H](O)[C@H](O)CO)c2cc1C [riboflavin]
[4]; 50 μM riboflavin alone
  bleaching of Lemna gibba fronds: some mild bleaching of the fronds
  growth of Lemna gibba: did not affect the growth
[4]; [7]
  reversal of bleaching of Lemna gibba: reversed the bleaching phenotype to the level observed in the experiment where only riboflavin had been applied
  reversal of growth inhibition of Lemna gibba: almost completely alleviated the growth inhibition

## aspterric acid
[5]
  IC50: 500 nM

B1: AtDHBPS (Arabidopsis thaliana) (protein)
chain: MFVAEDDDFELDLPTPGFSSIPEAIEDIRQGKLVVVVDDEDRENEGDLVMAAQLATPEAMAFIVRHGTGIVCVSMKEDDLERLHLPLMVNQKENEEKLSTAFTVTVDAKHGTTTGVSARDRATTILSLASRDSKPEDFNRPGHIFPLKYREGGVLKRAGHTEASVDLTVLAGLDPVGVLCEIVDDDGSMARLPKLREFAAENNLKVVSIADLIRYRRKRDKLVERASKGGRADPAFLYKVVINSKLEGKPIPNPLLGLDSTRTGHHHHHH
notes: made in house; host or cells: Escherichia coli BL21(DE3)
[6]
  Km: 150 ± 20 µM
